Earlier results, collected in patent publication US6107296A, “Neuroprotective use of triazolo-pyridazine derivatives” (Merck Sharp & Dohme, Ltd., priority 1997, dated 2000).

Experiments:
[1] = test system: GABAA receptor subtypes containing the α1 and α3 or α5 subunits; conditions: partial agonist at each of the α1, α3 or α5 containing receptors
[2] = test system: selectively vulnerable neuronal populations in the gerbil forebrain; conditions: gerbil forebrain ischemia model
[3] = test system: GABAA receptor subtypes containing the α1 and α3 or α5 subunits

C[C@@H]1CN(C(=O)c2cc3c(C(=O)OC(C)(C)C)ncn3c3ccc(Cl)cc23)C[C@H](C)N1 [PNU-101017]
intrinsic activity relative to the full agonist diazepam [1]: approximately 50% | neuronal survival [2]: dose-related increase in neuronal survival | affinity for GABAA receptor subtypes [3]: high affinity
